Laboratory results as given in patent US9249129B2, “Morpholino substituted urea derivatives as mTOR inhibitors” (CELLZOME LIMITED, priority 2010, dated 2016).
pIC50: −log10 of the molar value.

Key:
Experiment in all cases: kinobeads assay with mass spectrometry detection of kinases (kinase selectivity profile)
Assay type in all cases: binding
[1] = target: T1, kinases (kinome) (Homo sapiens, UniProt P36897); settings: TGFbR1 (TKL), IPI00005733
T1 construct: determined in kinobeads assays with mass spectrometry detection of kinases as described previously; endogenous in cells; host or cells: cell lysate
T1 sequence (P36897 34-503): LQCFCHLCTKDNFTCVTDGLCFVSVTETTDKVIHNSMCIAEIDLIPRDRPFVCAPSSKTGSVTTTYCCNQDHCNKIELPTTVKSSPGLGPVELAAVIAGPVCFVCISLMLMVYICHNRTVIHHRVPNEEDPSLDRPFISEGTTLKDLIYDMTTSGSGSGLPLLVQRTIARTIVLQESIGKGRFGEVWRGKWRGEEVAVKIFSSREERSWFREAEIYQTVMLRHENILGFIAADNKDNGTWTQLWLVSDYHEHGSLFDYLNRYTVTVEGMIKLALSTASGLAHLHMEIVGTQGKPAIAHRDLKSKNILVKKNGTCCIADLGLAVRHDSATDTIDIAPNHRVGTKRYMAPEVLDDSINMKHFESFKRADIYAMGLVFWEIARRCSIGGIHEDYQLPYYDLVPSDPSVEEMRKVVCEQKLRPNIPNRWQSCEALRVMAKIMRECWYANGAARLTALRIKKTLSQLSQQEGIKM
Text: (§1) The protein kinase complement of the human genome (the kinome) was described previously (Manning et al., 2002. Science 298(5600):1912-1934). Sequence accession numbers are defined by the International Protein Index (IPI) (Kersey et al., 2004. Proteomics 4(7):1985-1988).

[2] = target: T2, kinases (kinome) (Homo sapiens, UniProt Q9HCP0); settings: CK1g1 (CK1), IPI00791893
T2 construct: determined in kinobeads assays with mass spectrometry detection of kinases as described previously; endogenous in cells; host or cells: cell lysate
T2 sequence (Q9HCP0 whole entry): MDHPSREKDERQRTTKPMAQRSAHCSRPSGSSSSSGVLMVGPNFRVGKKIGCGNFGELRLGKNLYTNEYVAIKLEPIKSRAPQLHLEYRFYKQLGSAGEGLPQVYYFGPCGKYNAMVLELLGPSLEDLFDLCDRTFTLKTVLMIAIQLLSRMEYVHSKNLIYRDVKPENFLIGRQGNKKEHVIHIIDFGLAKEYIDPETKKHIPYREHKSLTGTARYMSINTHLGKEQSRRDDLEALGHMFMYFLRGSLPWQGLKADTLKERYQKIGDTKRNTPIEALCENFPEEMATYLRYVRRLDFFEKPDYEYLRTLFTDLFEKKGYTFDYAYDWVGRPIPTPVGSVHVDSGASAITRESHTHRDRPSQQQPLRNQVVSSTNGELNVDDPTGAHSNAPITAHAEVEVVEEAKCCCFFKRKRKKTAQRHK
Text: as §1

[3] = target: T3, kinases (kinome) (Homo sapiens, UniProt P29323); settings: EphB2 (TK), IPI00021275
T3 construct: determined in kinobeads assays with mass spectrometry detection of kinases as described previously; endogenous in cells; host or cells: cell lysate
T3 sequence (P29323 19-1055): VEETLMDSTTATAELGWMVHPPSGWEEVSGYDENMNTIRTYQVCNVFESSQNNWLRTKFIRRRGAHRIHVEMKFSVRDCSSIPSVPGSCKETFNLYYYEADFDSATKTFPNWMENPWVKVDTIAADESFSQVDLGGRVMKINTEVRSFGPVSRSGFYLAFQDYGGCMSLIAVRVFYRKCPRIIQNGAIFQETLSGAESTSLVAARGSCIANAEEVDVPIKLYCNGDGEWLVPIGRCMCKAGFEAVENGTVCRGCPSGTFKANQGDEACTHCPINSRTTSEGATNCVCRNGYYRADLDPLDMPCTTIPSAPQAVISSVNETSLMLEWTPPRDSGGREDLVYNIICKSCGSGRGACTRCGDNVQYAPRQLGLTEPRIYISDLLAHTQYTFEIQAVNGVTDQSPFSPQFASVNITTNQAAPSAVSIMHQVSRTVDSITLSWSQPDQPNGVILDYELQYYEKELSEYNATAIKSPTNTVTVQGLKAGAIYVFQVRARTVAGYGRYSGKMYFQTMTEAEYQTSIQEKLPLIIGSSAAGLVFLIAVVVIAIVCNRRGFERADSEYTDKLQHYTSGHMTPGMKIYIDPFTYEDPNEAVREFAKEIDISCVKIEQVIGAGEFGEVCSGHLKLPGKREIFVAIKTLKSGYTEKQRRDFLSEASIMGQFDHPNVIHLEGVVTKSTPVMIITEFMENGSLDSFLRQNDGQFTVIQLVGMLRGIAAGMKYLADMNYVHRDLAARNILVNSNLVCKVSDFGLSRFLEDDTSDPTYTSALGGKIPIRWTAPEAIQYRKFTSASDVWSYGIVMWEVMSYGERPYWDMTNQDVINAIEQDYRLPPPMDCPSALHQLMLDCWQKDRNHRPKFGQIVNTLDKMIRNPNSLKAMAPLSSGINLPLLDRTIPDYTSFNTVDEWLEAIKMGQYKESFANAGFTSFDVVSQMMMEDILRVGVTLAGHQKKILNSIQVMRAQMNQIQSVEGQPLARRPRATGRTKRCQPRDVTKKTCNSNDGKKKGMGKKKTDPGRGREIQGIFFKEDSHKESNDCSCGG
Text: as §1

[4] = target: T4, kinases (kinome) (Homo sapiens, UniProt P51451); settings: BLK (TK), IPI00554756
T4 construct: determined in kinobeads assays with mass spectrometry detection of kinases as described previously; endogenous in cells; host or cells: cell lysate
T4 sequence (P51451 whole entry): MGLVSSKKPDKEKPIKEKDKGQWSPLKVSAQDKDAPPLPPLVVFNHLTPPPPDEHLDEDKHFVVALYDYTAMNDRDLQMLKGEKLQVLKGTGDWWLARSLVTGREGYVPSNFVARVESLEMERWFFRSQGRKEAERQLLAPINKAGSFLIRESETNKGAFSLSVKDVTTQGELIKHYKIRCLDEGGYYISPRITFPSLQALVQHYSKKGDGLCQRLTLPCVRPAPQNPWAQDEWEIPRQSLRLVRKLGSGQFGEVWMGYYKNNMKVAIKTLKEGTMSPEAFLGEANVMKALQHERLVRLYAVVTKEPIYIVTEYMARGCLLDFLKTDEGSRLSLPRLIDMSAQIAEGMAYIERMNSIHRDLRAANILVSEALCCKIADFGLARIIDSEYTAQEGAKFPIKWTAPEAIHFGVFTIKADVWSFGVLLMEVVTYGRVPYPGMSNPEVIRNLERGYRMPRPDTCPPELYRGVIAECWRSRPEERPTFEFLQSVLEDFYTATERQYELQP
Text: as §1

Measured: pIC50

C[C@H]1COCCN1c1nc(-c2ccc(NC(=O)NC3CC3)cc2)cc(-c2cccnc2S(C)(=O)=O)n1 [Example 46, (S)-1-cyclopropyl-3-(4-(2-(3-methylmorpholino)-6-(2-(methylsulfonyl)pyridin-3-yl)pyrimidin-4-yl)phenyl)urea]
< 5.00: all assays above

C[C@H]1COCCN1c1nc(-c2ccc(NC(=O)NC3CC3)cc2)cc(-c2ccccc2S(C)(=O)=O)n1 [Example 4, (S)-1-cyclopropyl-3-(4-(2-(3-methylmorpholino)-6-(2-(methylsulfonyl)phenyl)pyrimidin-4-yl)phenyl)urea]
< 5.00: all assays above

C[C@H]1COCCN1c1nc(-c2ccc(NC(=O)N[C@H]3CCC[C@@H]3O)cc2)cc(-c2cc(F)ccc2S(C)(=O)=O)n1 [Example 76, 1-(4-(6-(5-fluoro-2-(methylsulfonyl)phenyl)-2-((S)-3-methylmorpholino)pyrimidin-4-yl)phenyl)-3-((1S,2S)-2-hydroxycyclopentyl)urea]
< 5.00: all assays above

CCNC(=O)Nc1ccc(-c2cc(-c3ccccc3C#N)nc(N3CCOC[C@@H]3C)n2)cc1 [Example 8, (S)-1-(4-(6-(2-cyanophenyl)-2-(3-methylmorpholino)pyrimidin-4-yl)phenyl)-3-ethylurea]
< 5.00: all assays above

C[C@H]1COCCN1c1cc(-c2ccccc2S(C)(=O)=O)nc(-c2ccc(NC(=O)NC3CC3)cc2)n1 [Example 6, (S)-1-cyclopropyl-3-(4-(4-(3-methylmorpholino)-6-(2-(methylsulfonyl)phenyl)pyrimidin-2-yl)phenyl)urea]
< 5.00: all assays above

C[C@H]1COCCN1c1cc(-c2ccccn2)nc(-c2ccc(NC(=O)NCCO)cc2)n1 [Example 43, (S)-1-(2-hydroxyethyl)-3-(4-(4-(3-methylmorpholino)-6-(pyridin-2-yl)pyrimidin-2-yl)phenyl)urea]
< 5.00: all assays above

C[C@H]1COCCN1c1nc(-c2ccc(NC(=O)NC3CC3)cc2)cc(-c2cc(F)ccc2S(C)(=O)=O)n1 [Example 40, (S)-1-cyclopropyl-3-(4-(6-(5-fluoro-2-(methylsulfonyl)phenyl)-2-(3-methylmorpholino)pyrimidin-4-yl)phenyl)urea]
< 5.00: all assays above
